For assay [1], the target named is human PPARγ ligand binding domain (LBD) (Homo sapiens (Human), UniProt P37231). As to the kind of experiment: TR-FRET PPARγ competitive binding assay (Invitrogen LanthaScreen). The procedure:
The assays are conducted by first evaluation of the direct interactions of the molecules with the ligand binding domain of PPARγ. […] PPARγ binding is measured by a TR-FRET competitive binding assay using Invitrogen LanthaScreen™ TR-FRET PPARγ Competitive Binding Assay (Invitrogen #4894). This assay uses a terbium-labeled anti-GST antibody to label the GST tagged human PPARγ ligand binding domain (LBD). A fluorescent small molecule pan-PPAR ligand tracer binds to the LBD causing energy transfer from the antibody to the ligand resulting in a high TR-FRET ratio. […] The TR-FRET ratio is determined by reading the fluorescence emission at 490 and 520 nm using a Synergy2 plate reader (BioTek). The ability of compounds of the present invention to bind to PPARγ may also be measured using a commercial binding assay (Invitrogen Corporation, Carlsbad, Calif.) that measures the test compounds ability to bind with PPAR-LBD/Fluormone PPAR Green complex. These assays are performed on three occasions with each assay using duplicate wells at each concentration of tested compound. The data are mean and SEM of the values obtained from the three experiments. […] Compounds were added at the concentrations shown, which ranged from 0.1-100 micromolar.
For orientation: Time-resolved FRET reads energy transfer from a long-lived donor to a nearby acceptor.

In assay [2] the test system is diabetic KKAy mice. As to the kind of experiment: Glucose, insulin and triglyceride in diabetic KKAy mice. To be noted: orally dosed 93 mg/kg for 4 days, T/C normalized to vehicle activity. It is filed as in vivo. The method, then: The insulin sensitizing and antidiabetic pharmacology are measured in the KKA^Y mice as previously reported [Hofmann, C., Lomez, K., and Colca, J. R. (1991). Glucose transport deficiency corrected by treatment with the oral anti-hyperglycemic agent Pioglitazone. Endocrinology, 129:1915-1925.]. Compounds are formulated in 1% sodium carboxy methylcellulose, and 0.01% tween 20 and dosed daily by oral gavage. […] Compounds were formulated by suspension and orally dosed to KKA^Y mice at 93 mg/kg for 4 days. The compounds were first dissolved in DMSO and then placed into aqueous suspension containing 7-10% DMSO, 1% sodium methylcarboxycellulose, and 0.01% Tween 20. On the fifth day, the mice were fasted and blood samples were obtained approximately 18 hours after the last dose. The parameters were measured by standard assay methods. Data are mean and SEM N=6-12 mice.

Structures can show the parent of a compound that is named as a salt.

The results in this text go back to patent US9562012B2, “PPAR-sparing compounds for the treatment of metabolic diseases” (Metabolic Solutions Development Company, LLC, priority 2013, dated 2017).

human PPARγ ligand binding domain (LBD), sequence (P37231 238-503): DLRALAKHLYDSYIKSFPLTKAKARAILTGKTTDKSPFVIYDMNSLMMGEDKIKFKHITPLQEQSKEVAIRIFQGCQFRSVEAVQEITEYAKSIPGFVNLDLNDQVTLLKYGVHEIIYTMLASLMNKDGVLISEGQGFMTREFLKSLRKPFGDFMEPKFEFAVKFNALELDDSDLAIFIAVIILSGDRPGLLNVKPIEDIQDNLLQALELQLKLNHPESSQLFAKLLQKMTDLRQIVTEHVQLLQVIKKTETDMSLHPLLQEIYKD

As to `CCO[C@@H](Cc1ccc(OCc2ccccn2)cc1)C(=O)NO` [Compound 1, (2S)-2-ethoxy-N-hydroxy-3-[4-(pyridin-2-ylmethoxy)phenyl]propanamide hydrogen chloride], the 50% inhibitory concentration (IC50) (as a rule, the concentration that gives 50% inhibition) in assay [1] came to 58.9 µM.

As for `CCO[C@H](Cc1ccc(OC[C@@H](O)c2cccc(OC)c2)cc1)C(=O)NO` [Compound 2, (2R)-2-ethoxy-N-hydroxy-3-{4-[(2S)-2-hydroxy-2-(3-methoxyphenyl)ethoxy]phenyl}propanamide], the IC50 in assay [1] was greater than 100 µM.

Take `CCO[C@@H](Cc1ccc(OCc2cc(OC)ccn2)cc1)C(=O)NO` [Compound 3, (2S)-2-ethoxy-N-hydroxy-3-{4-[(4-methoxypyridin-2-yl)methoxy]phenyl}propanamide hydrochloride]: the IC50 in assay [1] is greater than 250 µM.

With `CCO[C@@H](Cc1ccc(OCc2cc(OC)ccn2)cc1)C(=O)N(C)OC` [Compound 4, (2S)-2-ethoxy-N-methoxy-3-{4-[(4-methoxypyridin-2-yl)methoxy]phenyl}-N-methylpropanamide], in assay [1], the IC50 was determined as 27.7 µM.

For `CCO[C@@H](Cc1ccc(OCc2cc(OC)ccn2)cc1)C(=O)NOC.Cl` [Compound 5, (2S)-2-ethoxy-N-methoxy-3-{4-[(4-methoxypyridin-2-yl)methoxy]phenyl}propanamide hydrochloride], in assay [1], the IC50 was greater than 250 µM. For the same compound, the “Gluclose (mean T/C)” value in assay [2] worked out at 0.97.

In the case of `CCO[C@@H](Cc1ccc(OCc2cc(OC)ccn2)cc1)C(=O)N(C)O.Cl` [Compound 6, (2S)-2-ethoxy-N-hydroxy-3-{4-[(4-methoxypyridin-2-yl)methoxy]phenyl}-N-methylpropanamide hydrochloride], in assay [1], the half-inhibitory concentration (IC50) was greater than 195 µM. The “Gluclose (mean T/C)” value in assay [2] turned out to be 0.55.

Regarding `CCO[C@@H](Cc1ccc(OCc2cccc(I)c2)cc1)C(=O)NO` [Compound 7, (2S)-2-ethoxy-N-hydroxy-3-{4-[(3-iodobenzyl)oxy]phenyl}propanamide], in assay [1], the IC50 was 11.8 µM.

On to `CCO[C@H](Cc1ccc(OCC(=O)c2cccc(OC)c2)cc1)C(=O)NOC` [Compound 8, (2R)-2-ethoxy-N-methoxy-3-{4-[2-(3-methoxyphenyl)-2-oxoethoxy]phenyl}propanamide], for which the IC50 in assay [1] was 98.5 µM.

As to `CCO[C@@H](Cc1ccc(OCc2ccc(S(C)(=O)=O)cc2)cc1)C(=O)NOC` [Compound 9, (2S)-2-ethoxy-N-methoxy-3-(4-{[4-(methylsulfonyl)benzyl]oxy}phenyl) propanamide], in assay [1], the 50% inhibitory concentration (IC50) is greater than 250 µM.

On to `CCO[C@@H](Cc1ccc(OCCc2ccc(OS(C)(=O)=O)cc2)cc1)C(=O)NOC` [Compound 10], for which the IC50 in assay [1] was determined as 7.9 µM.

For the compound `CCO[C@H](Cc1ccc(OCC(=O)c2cccc(OC)c2)cc1)C(=O)N(C)OC` [Compound 11, (2R)-2-ethoxy-N-methoxy-3-{4-[2-(3-methoxyphenyl)-2-oxoethoxy]phenyl}-N-methylpropanamide], the half-inhibitory concentration (IC50) in assay [1] stood at 30.5 µM.

On to `CCO[C@@H](Cc1ccc(OC[C@@H](O)c2cccc(OC)c2)cc1)C(=O)NOC` [Compound 12, (2S)-2-ethoxy-3-{4-[(2S)-2-hydroxy-2-(3-methoxyphenyl)ethoxy]phenyl}-N-methoxypropanamide], for which, in assay [1], the IC50 turned out to be 164 µM. For the same compound, the “Gluclose (mean T/C)” value in assay [2] stood at 0.49.

On to `CCO[C@@H](Cc1ccc(OCC(=O)c2cccc(OC)c2)cc1)C(=O)NOC` [Compound 13, (2S)-2-ethoxy-N-methoxy-3-{4-[2-(3-methoxyphenyl)-2-oxoethoxy]phenyl}Propanamide], for which the half-maximal inhibitory concentration (IC50) in assay [1] stood at 61.4 µM. Moreover, the “Gluclose (mean T/C)” value in assay [2] is given as 0.59.

With `CCO[C@@H](Cc1ccc(OCC(=O)c2cccc(OC)c2)cc1)C(=O)N(C)OC` [Compound 14, (2S)-2-ethoxy-N-methoxy-3-{4-[2-(3-methoxyphenyl)-2-oxoethoxy]phenyl}-N-methylpropanamide], in assay [1], the half-inhibitory concentration (IC50) is greater than 250 µM. For the same compound, in assay [2], the “Gluclose (mean T/C)” value was 0.76.

As for `CCO[C@@H](Cc1ccc(OC[C@H](O)c2cccc(OC)c2)cc1)C(=O)NOC` [Compound 15, (2S)-2-ethoxy-3-{4-[(2R)-2-hydroxy-2-(3-methoxyphenyl)ethoxy]phenyl}-N-methoxypropanamide], the IC50 in assay [1] is greater than 200 µM.

On to `CCO[C@@H](Cc1ccc(OC[C@H](O)c2cccc(OC)c2)cc1)C(=O)N(C)OC` [Compound 16, (2S)-2-Ethoxy-3-{4-[(2R)-2-hydroxy-2-(3-methoxyphenyl)ethoxy]phenyl}-N-methoxy-N-methylpropanamide], for which the half-inhibitory concentration (IC50) in assay [1] worked out at 191 µM.

Consider `CCO[C@@H](Cc1ccc(OC[C@@H](O)c2cccc(OC)c2)cc1)C(=O)N(C)OC` [Compound 17], for which the IC50 in assay [1] was determined as 27.7 µM.

Take `CCO[C@H](Cc1ccc(OC[C@@H](O)c2cccc(OC)c2)cc1)C(=O)NOC` [Compound 18, (2R)-2-ethoxy-3-{4-[(2S)-2-hydroxy-2-(3-methoxyphenyl)ethoxy]phenyl}-N-methoxypropanamide]: the concentration for half-maximal inhibition (IC50) in assay [1] was greater than 250 µM.

`CCO[C@H](Cc1ccc(OC[C@H](O)c2cccc(OC)c2)cc1)C(=O)NOC` [Compound 19, (2R)-2-ethoxy-3-{4-[(2R)-2-hydroxy-2-(3-methoxyphenyl)ethoxy]phenyl}-N-methoxypropanamide]: the half-inhibitory concentration (IC50) in assay [1] is greater than 250 µM.

For `CCO[C@@H](Cc1ccc(OCCc2ccc(OS(C)(=O)=O)cc2)cc1)C(=O)N(C)O` [Compound 20], the IC50 in assay [1] worked out at 10.9 µM.

For `CCO[C@@H](Cc1ccc(OCCc2ccc(OS(C)(=O)=O)cc2)cc1)C(=O)N(C)OC` [Compound 21], the IC50 in assay [1] came to 3.7 µM.
